Where two headings read alike, the source gives them in different places. Blank lines part the entries; values can stand above or below the compound they belong to.
Experiments:
[1] = cited from earlier work
[2] = Solubility of aprepitant in water or ethanol/water with polysorbate 80; format: physicochemical
Excerpt: The inventors further tested whether co-solvents (i.e., solvents in addition to water) in combination with surfactants would improve solubility of aprepitant. […] In most preferred aspects, a relatively low concentration of nonionic surfactant was chosen in a co-solvent mixture of ethanol and water, and Tables 3-5 below exemplarily illustrate the results of such combination.
More specifically, Table 3 depicts solubility results of aprepitant in water without ethanol at surfactant concentrations noted in the table.
Likewise, Table 4 depicts solubility results of aprepitant in an ethanol/water mixture of (30 vol % EtOH, 70 vol % H2O) at surfactant concentrations noted in the table, and Table 5 depicts solubility results of aprepitant in an ethanol/water mixture of (55 volume % EtOH, 45 vol % H2O) at surfactant concentrations noted in the table.

[3] = Solubility of aprepitant in aqueous surfactant solutions; format: physicochemical; conditions: water alone as solvent
Excerpt: However, in a typical injectable formulation at Polysorbate 80 concentration of 10% w/v, it would require 7 grams of surfactant, and at Polysorbate 80 concentration of 30% w/v, it would require 9 grams of surfactant to solubilize the aprepitant. Unfortunately, such high quantities of surfactant are entirely unsuitable for injectable formulations (e.g., due to hypersensitivity issues related to polysorbate, foam formation during mixing, etc.). Table 2 below illustrates typical solubility data for aprepitant using water alone as solvent.

[4] = Solubility of aprepitant in ethanol with the balance water; format: physicochemical
Excerpt: Thus, while the above approaches using complexing agents and/or co-solvents led to a soluble form of aprepitant in at least some instances, concentration of aprepitant is relatively low, and aprepitant tends to precipitate out upon further dilution. As is already known in the art, solubility of aprepitant increases exponentially with increasing concentration of ethanol as shown in Table 1 in the background section. Moreover, maximum allowed concentrations of ethanol in a drug formulation are typically at or below 49 volume %. […] Moreover, and as already noted above, an ethanol/water solvent system is not suitable for injection as aprepitant will rapidly precipitate upon dilution at the injection site.

[5] = Solubility of aprepitant in polysorbate 80 solutions after pre-solubilisation in DMAC; format: physicochemical
Experimental: The inventors also tested whether solubility of aprepitant in aqueous polysorbate 80 solutions could be improved when aprepitant was pre-solubilized in a secondary solvent (e.g., dimethylacetamide (DMAC)). […] Remarkably, when the inventors directly added 200 μL of DMAC solubilized in 10 mL of water to 100 mg aprepitant (i.e., without surfactant), aprepitant was not detected in the solution phase.

[6] = cited from earlier work; remark: listed apart in the source
[7] = Solubilization of aprepitant by pH (pKa, pH-dependent solubility); format: physicochemical
Experimental: Indeed, to be soluble in aqueous solution, a pH of greater than 11.7 is required. However, a formulation with such a high pH is not suitable for injection. Moreover, the instant such a formulation is diluted in blood, the pH will change to about pH 7.4, which will lead to rapid precipitation of the drug. […] Similar problems were also encountered where aprepitant is dissolved in a water/ethanol solvent mixture where ethanol is at about 50 volume 9 concentration. Here, dilution that would occur at the injection site would lead to precipitation of the drug and so might lead to chemo-embolism.

[8] = given orally, nanoparticulate composition; cited from earlier work
[9] = IV infusion; cited from earlier work
[10] = prevention and control of acute and delayed chemotherapy induced nausea and vomiting; cited from earlier work

Aprepitant Conc. ([2]; 30 vol % EtOH, 70 vol % H2O, Polysorbate 80 11 mg/mL): 0.560 mg/mL
Aprepitant Conc. ([2]; 30 vol % EtOH, 70 vol % H2O, Polysorbate 80 44 mg/mL): 0.793 mg/mL
Aprepitant Conc. ([2]; 30 vol % EtOH, 70 vol % H2O, no Polysorbate 80): 0.0232 mg/mL
Aprepitant Conc. ([2]; 55 volume % EtOH, 45 vol % H2O, Polysorbate 80 11 mg/mL): 1.936 mg/mL
Aprepitant Conc. ([2]; 55 volume % EtOH, 45 vol % H2O, Polysorbate 80 22 mg/mL): 3.309 mg/mL
Aprepitant Conc. ([2]; 55 volume % EtOH, 45 vol % H2O, Polysorbate 80 44 mg/mL): 4.182 mg/mL
Aprepitant Conc. ([2]; 55 volume % EtOH, 45 vol % H2O, no Polysorbate 80): 3.3 mg/mL
Aprepitant Conc. ([2]; water without ethanol, Polysorbate 80 11 mg/mL): 0.179 mg/mL
Aprepitant Conc. ([2]; water without ethanol, Polysorbate 80 22 mg/mL): 0.308 mg/mL
Aprepitant Conc. ([2]; water without ethanol, Polysorbate 80 44 mg/mL): 0.505 mg/mL
Aprepitant Conc. ([3]; Cremophor RH 40 10 % w/v): 1.24 mg/mL
Aprepitant Conc. ([3]; Cremophor RH 40 30 % w/v): 3.51 mg/mL
Aprepitant Conc. ([3]; Cremophor RH 60 10 % w/v): 1.24 mg/mL
Aprepitant Conc. ([3]; Poloxamer 188 30 % w/v): 1.24 mg/mL
Aprepitant Conc. ([3]; Polysorbate 80 10 % w/v): 1.85 mg/mL
Aprepitant Conc. ([3]; Polysorbate 80 30 % w/v): 4.42 mg/mL
Aprepitant Conc. ([4]; Ethanol Conc. (v/v) 10, balance water): 0.0001 mg/mL
Aprepitant Conc. ([4]; Ethanol Conc. (v/v) 30, balance water): 0.0232 mg/mL
Aprepitant Conc. ([4]; Ethanol Conc. (v/v) 50, balance water): 1.76 mg/mL
Aprepitant Conc. ([4]; Ethanol Conc. (v/v) 55, balance water): 3.30 mg/mL
Aprepitant Conc. ([4]; Ethanol Conc. (v/v) 60, balance water): 5.1 mg/mL
Aprepitant Conc. ([4]; Ethanol Conc. (v/v) 70, balance water): 12.8 mg/mL
Aprepitant Conc. ([4]; Ethanol Conc. (v/v) 90, balance water): 21.8 mg/mL
aprepitant in the solution phase ([5]; 200 μL DMAC in 10 mL water added directly to 100 mg aprepitant, without surfactant): not detected
Aprepitant Conc. ([5]; Directly Added, Polysorbate 80 10 % w/v): 1.85 mg/mL
Aprepitant Conc. ([5]; Directly Added, Polysorbate 80 30 % w/v): 4.42 mg/mL
Aprepitant Conc. ([5]; Prior Solubilization in DMAC, Polysorbate 80 5 % w/v): 0.85 mg/mL
Aprepitant Conc. ([5]; Prior Solubilization in DMAC, Polysorbate 80 10 % w/v): 2.03 mg/mL
Aprepitant Conc. ([5]; Prior Solubilization in DMAC, Polysorbate 80 15 % w/v): 3.13 mg/mL
Aprepitant Conc. ([5]; Prior Solubilization in DMAC, Polysorbate 80 20 % w/v): 4.35 mg/mL
Aprepitant Conc. ([5]; Prior Solubilization in DMAC, Polysorbate 80 30 % w/v): 4.80 mg/mL
pH required to be soluble in aqueous solution ([7]; aqueous solution): greater than 11.7
solubility in concentrated formic acid ([7]; concentrated formic acid): soluble
behaviour on dilution of formic acid solution ([7]; twofold dilution with aqueous medium): precipitated almost immediately
Structure (SMILES): C[C@@H](O[C@H]1OCCN(Cc2nc(=O)[nH][nH]2)[C@H]1c1ccc(F)cc1)c1cc(C(F)(F)F)cc(C(F)(F)F)c1 [Aprepitant, 5-([(2R,3S)-2((R)-1-[3,5-bis(trifluoromethyl)phenyl]ethoxy)-3-(4-fluoro-phenyl)morpholino]methyl)-1H-1,2,4-triazol-3(2H)-one]
pka [1]: 9.7
solubility (descriptive) ([6]; acetonitrile): slightly soluble
solubility (descriptive) ([6]; ethanol): sparingly soluble
solubility (descriptive) ([6]; isopropyl acetate): sparingly soluble
solubility (descriptive) ([6]; oil (as is well established)): substantially insoluble
solubility (descriptive) ([6]; water (as is well established)): substantially insoluble
solubility (descriptive) ([6]; water): practically insoluble
bioavailability [8]: 60-65%

Structure (SMILES): C[C@@H](O[C@H]1OCCN(Cc2nc(O)n(P(=O)(O)O)n2)[C@H]1c1ccc(F)cc1)c1cc(C(F)(F)F)cc(C(F)(F)F)c1 [Fosaprepitant]
time for conversion to aprepitant [9]: less than 30 minutes
comparison to aprepitant [10]: non-inferiority and bioequivalency

— patent US9968614B2, “Aprepitant injectable formulations” (InnoPharma, Inc., priority 2012, dated 2018)
